Test results from article PMC8533485 (Biomedicines, 2021).
Like-named read-outs stand apart in the source and are kept apart here.

Tests used:
[1] = tested on: staphylococci and streptococci; assay: PK/PD evaluation: observed PK versus EUCAST breakpoint MIC, adjusted by 93% protein binding; conditions: MIC 0.125 mg/L
Protocol: (§1) T > MIC was calculated based on the terminal t1/2 for each patient as a possible marker of the long-term prophylactic effect.

[2] = ref [6],[7],[8]; cited from earlier work
[3] = tested on: plasma proteins (mainly albumin); conditions: cited from earlier work
[4] = clinical; conditions: human, in vivo, iv
[5] = tested on: staphylococci and streptococci; conditions: in vivo
Protocol: as §1

[6] = tested on: plasma proteins (mainly albumin); conditions: cited from earlier work; remark: listed apart in the source
From the text: Currently, off-label use at high dosages for osteoarticular infections deserves attention. […] AUC0-1w/MIC and, partic ...

[7] = in vivo
[8] = tested on: MRSA; assay: Vancomycin MIC of patient isolates by ETEST; type: cell-based, Staphylococcus aureus; conditions: isolates of individual patients
[9] = tested on: MSSA; assay: Vancomycin MIC of patient isolates by ETEST; type: cell-based, Staphylococcus aureus; conditions: isolates of individual patients

SMILES | median AUC0-2w/MIC ratio ([1]; dual dose regimen) | median AUC0-2w/MIC ratio ([1]; single dose regimen) | half-life (t1/2) [2] | binding to plasma proteins [3] | half-life [4] | half-life ([4]; 1500 mg) | Cmax ([4]; 1500 mg, C max) | AUC0-2w/MIC adjusted by 93% protein binding, all patients ([5]; human) | AUC0-2w/MIC relative to previously suggested cut-off of 1000 (for staphylococci) [5] | T > MIC in all patients [5] | binding to plasma proteins [6] | t1/2 reached in multiphasic profile [7] | MIC for Vancom. [8] | MIC for Vancom. [9]
CN[C@H]1C(=O)N[C@@H]2Cc3ccc(cc3)Oc3cc4cc(c3O[C@@H]3O[C@H](C(=O)O)[C@@H](O)[C@H](O)[C@H]3NC(=O)CCCCCCCCC(C)C)Oc3ccc(cc3Cl)[C@@H](O)[C@@H]3NC(=O)[C@H](NC(=O)[C@@H]4NC(=O)[C@@H](NC2=O)c2cc(cc(O)c2Cl)Oc2cc1ccc2O)c1ccc(O)c(c1)-c1c(O[C@H]2O[C@H](CO)[C@@H](O)[C@H](O)[C@@H]2O)cc(O)cc1[C@@H](C(=O)NCCCN(C)C)NC3=O [DBV, Dalbavancin] | 31,366 | 20,590 | around 9 days | ~98% | 26.1 days | 21.9 days | 390 µg/mL | higher than 17,000 | at least 8 folds | higher than 6 weeks | 93% | higher than 500 h |  | 
CN[C@H](CC(C)C)C(=O)N[C@H]1C(=O)N[C@@H](CC(N)=O)C(=O)N[C@H]2C(=O)N[C@H]3C(=O)N[C@H](C(=O)N[C@H](C(=O)O)c4cc(O)cc(O)c4-c4cc3ccc4O)[C@H](O)c3ccc(c(Cl)c3)Oc3cc2cc(c3O[C@@H]2O[C@H](CO)[C@@H](O)[C@H](O)[C@H]2O[C@H]2C[C@](C)(N)[C@H](O)[C@H](C)O2)Oc2ccc(cc2Cl)[C@H]1O [Vancomycin, vancomycin] |  |  |  |  |  |  |  |  |  |  |  |  | 1 µg/mL | ≤0.5 µg/mL
